Earlier results as cited in patent US9034614B2, “Method of preparing alkyl butyrate from fermented liquid using microorganisms” (priority 2010, dated 2015).
≈ marks a conversion by molar mass, not a printed value. Read-outs that look alike come from different tables or passages of the source.

Solubility in water (stated in words)	Solubility in water	Compound
Insoluble		CCCCOC(=O)CCC [Butyl butyrate]
Miscible		CCO [Ethanol, reference compound]
	4900 µg/mL (≈ 42.2 mM)	CCCC(=O)OCC [Ethyl butyrate]
